Tests used:
ALS of W20 = experiment: In vitro ALS activity of leaf tissue in the presence of Compounds 8 and 9; assay type: biochemical, soybean; conditions: W20, 10 ppm
Source text: (§1) At approximately 1 month after transplantation, some of the selections appeared much healthier than others. For example, W4-4, W4-6, W6-1, W6-2, W6-4, W23-10, and W23-11 recovered very well from the seed soak treatment with Compound 8. These plants were suspected of having a higher level of ALS resistance to Compound 8 than did the parental material from which they were derived. The applicant was also interested to see if any of these selections were cross resistant to an imidazolinone herbicide such as Compound 9. To test this hypothesis, leaf tissue of the one-month-old M2 plants was sampled and assayed in vitro for ALS activity in the presence of Compound 8 and Compound 9. The ALS assay procedure was essentially identical to the previously described ALS assay except that the herbicide concentrations tested were 100 ppb Compound 8 and 10 ppm Compound 9. Williams and mutant W20 soybean plants were also assayed as control genotypes for comparison. Williams contains no genes conferring the ALS-based sulfonylurea resistance while W20 is homozygous for a single mutation conferring ALS-based sulfonylurea resistance.
(§2) Acetolactate synthase (ALS) was extracted from leaves of soybean plants growing vegetatively. The leaves were homogenized in 4 volumes of buffer containing 100 mM hepes (pH 7.5), 1 mM sodium pyruvate, 0.5 mM magnesium chloride, 0.5 mM thiamine pyrophosphate, […], 10% glycerol, 5% PVPP, and 0.2% mercaptoethanol. The homogenate was filtered through cheese cloth and centrifuged at 20,000 g for 20 min. ALS was precipitated from the supernatant with ammonium sulfate. The enzyme was collected between 20 and 60% saturation by centrifugation at 20,000 g for 20 min. The pellet was resuspended in buffer containing 100 mM Hepes, 1 mM sodium pyruvate, and 0.5 mM magnesium chloride, and desalted on PD-10 columns (Pharmacia) equilibrated with the same buffer. ALS assays were carried out in a final volume of 0.5 mL at 30° C. The final reaction mixture contained 100 mM Hepes (pH 7.5), 1 mM magnesium chloride, 60 mM sodium pyruvate, 0.4 mM thiaminepyrophosphate, […], and various concentrations of chlorsulfuron. The assays were initiated with the addition of enzyme ([…]) and terminated with the addition of […] of 6N sulfuric acid. The acidified reaction mixture was heated to 60° C. for 15 min, after which 0.5 mL of 0.5% (W/V) creatine and 0.5 mL of 5% (W/V) napthol (freshly prepared in 2.5 N sodium hydroxide) were added. The reaction mixtures were heated for an additional 15 min at 60° C., and the absorbance was read at 525 nm. Data are expressed in terms of % control (minus Compound 1) activity and are the average of two replications. Fisher's least significant difference (LSD) value (at the 95% level of confidence) was calculated for each Compound 1 concentration to determine the significance of genotype mean differences.

ALS of W23-11 = experiment: as above; assay type: biochemical, soybean; conditions: W23-11, 10 ppm
Source text: as §1, §2

ALS of W6-2 = experiment: as above; assay type: biochemical, soybean; conditions: W6-2, 10 ppm
Source text: as §1, §2

ALS of W23-10 = experiment: as above; assay type: biochemical, soybean; conditions: W23-10, 10 ppm
Source text: as §1, §2

ALS of W6-1 = experiment: as above; assay type: biochemical, soybean; conditions: W6-1, 10 ppm
Source text: as §1, §2

ALS of W4-6 = experiment: as above; assay type: biochemical, soybean; conditions: W4-6, 10 ppm
Source text: as §1, §2

ALS of Williams = experiment: as above; assay type: biochemical, soybean; conditions: 10 ppm
Source text: as §1, §2

ALS of W6-4 = experiment: as above; assay type: biochemical, soybean; conditions: W6-4, 10 ppm
Source text: as §1, §2

ALS of W4-4 = experiment: as above; assay type: biochemical, soybean; conditions: W4-4, 10 ppm
Source text: as §1, §2

ALS of W4-5 = experiment: as above; assay type: biochemical, soybean; conditions: W4-5, 10 ppm
Source text: as §1, §2

mutant line W20 = experiment: Test B postemergence cross resistance test; assay type: in vivo, soybean; conditions: Glycine max, post-emergence
Source text: (§3) In the second postemergence test, six true-breeding resistant mutant lines (W4, W17, W19, W20, W23, and W28) were compared to Williams 82 for cross resistance to a broad range of ALS inhibitors including eight sulfonylureas and three imidazolinones. Two seeds were planted in each 10 cm pot and allowed to grow to the second trifoliolate stage. Pots were not thinned back if both plants were at the proper stage. For each of 11 herbicides, two rates (Table VII) were selected based on previous data: the low rate was expected to cause significant injury (but not death) to Williams 82 and the high rate was expected to severely injure or kill Williams 82. All but a few line x rate treatments were replicated twice.
(§4) In both postemergence tests, plants were returned to the greenhouse after treatment and provided with ample light, moisture, and nutrients to support healthy plant growth. Two to three ratings per pot were recorded over a three-week period and averaged to obtain a single value for each pot For each herbicide, analysis of variance on injury ratings was performed separately. Fisher's least significant difference (LSD) was used to determine the significance of line mean differences at each herbicide rate using the 95% level of confidence.

mutant line W28 = experiment: Test B postemergence cross resistance test; assay type: in vivo, soybean; conditions: Glycine max, post-emergence
Source text: as §3
as §4, with “confidence. […]” for “confidence.”

Williams 82 = experiment: Test B postemergence cross resistance test; assay type: in vivo, soybean; conditions: Glycine max, post-emergence, read-out: mean % injury
Source text: as §3
as §4, with “confidence. […]” for “confidence.”

mutant line W19 = experiment: Test B postemergence cross resistance test; assay type: in vivo, soybean; conditions: Glycine max, post-emergence
Source text: as §3
as §4, with “confidence. […]” for “confidence.”

mutant line W4 = experiment: Test B postemergence cross resistance test; assay type: in vivo, soybean; conditions: Glycine max, post-emergence
Source text: as §3
as §4, with “confidence. […]” for “confidence.”

mutant line W23 = experiment: Test B postemergence cross resistance test; assay type: in vivo, soybean; conditions: Glycine max, post-emergence
Source text: as §3
as §4, with “confidence. […]” for “confidence.”

mutant line W17 = experiment: Test B postemergence cross resistance test; assay type: in vivo, soybean; conditions: Glycine max, post-emergence
Source text: as §3
as §4, with “confidence. […]” for “confidence.”

original cultivar = conditions: original tomato cultivar; cited from earlier work
tolerant tomato lines = conditions: cited from earlier work
[1] = system: mutants that have heritable sulfonylurea tolerance; experiment: Pilot studies, threshold concentration in hydroponic system; assay type: in vivo, soybean; conditions: sulfonylurea tolerant mutants, 100 mg/L used to irrigate the hydroponic system
Source text: (§5) The same sulfonylurea concentrations would select only highly resistant plants.

wild type soybeans = experiment: as above; assay type: in vivo, soybean; conditions: 100 mg/L used to irrigate the hydroponic system
Source text: as §5

[2] = system: Williams 82 (wild type soybean cultivar); experiment: Pilot study in modified Hydropot Solo hydroponic system; assay type: in vivo; conditions: Williams 82, 100 ppb in nutrient solution, 10 days after planting
Method: (§6) A pilot study was conducted to determine whether the modified Hydropot Solo system could be used to consistently differentiate between previously isolated (Sebastian and Chaleff, 1987. Crop Science 27:948-952) SU-tolerant mutants and wild type soybean plants. Four Hydropot Solo units were prepared with each planting tank containing a lower layer of pea gravel and an upper layer of fine vermiculite as described previously. Each reservoir was filled with tap water supplemented with 1/4 tablespoon of Miracle Grow soluble fertilizer per gallon. One hydroponic unit served as an untreated control while the nutrient solution of each of the other three was supplemented with either 100, 300, or 1000 ppb of an experimental sulfonylurea herbicide Compound 12. Ten seeds each of Williams 82 (wild type soybean cultivar), mutant 1-184A, mutant 1-183A, mutant 1-166A, and mutant 1-126A were then planted 2 cm deep into the vermiculite layer of each of the four hydroponic units. The programmable timer was set to irrigate the planting tanks for four 30-minute intervals during each 24-hour period. […] Differences between mutant and wild type became less dramatic as the herbicide concentration increased to 1000 ppb. […] These observations confirmed that the modified Hydropot system could be used to select for herbicide tolerance. […]

[3] = system: SU-tolerant mutants 1-184A, 1-183A, 1-166A, 1-126A; experiment: as above; assay type: in vivo, soybean
Method: as §6

CC(C)C1(C)N=C(c2nc3ccccc3cc2C(=O)O)NC1=O (stereo not shown) [Compound 9, 2-[4,5-dihydro-4-methyl-4-(1-methylethyl)-5-oxo-1H-imidazol-2-Yl]-3-quinolinecarboxylic acid]
uninhibited ALS activity as % of control (ALS of W20): 18.4 % of control
uninhibited ALS activity as % of control (ALS of W23-11): 13.0 % of control
uninhibited ALS activity as % of control (ALS of W6-2): 11.7 % of control
uninhibited ALS activity as % of control (ALS of W23-10): 19.5 % of control
uninhibited ALS activity as % of control (ALS of W6-1): 16.2 % of control
uninhibited ALS activity as % of control (ALS of W4-6): 10.7 % of control
uninhibited ALS activity as % of control (ALS of Williams): 14.0 % of control
uninhibited ALS activity as % of control (ALS of W6-4): 18.7 % of control
uninhibited ALS activity as % of control (ALS of W4-4): 44.3 % of control
uninhibited ALS activity as % of control (ALS of W4-5): 19.3 % of control
percent crop injury at 250 g/ha (mutant line W20; W20, 250 g/ha postemergence): 5%
percent crop injury at 1000 g/ha (mutant line W20; W20, 1000 g/ha postemergence): 15%
mean % injury to soybean at 250 g/ha (mutant line W28; W28, 250 g/ha postemergence): 9%
mean % injury to soybean at 1000 g/ha (mutant line W28; W28, 1000 g/ha postemergence): 15%
pest or weed control at 250 g/ha (Williams 82): 8%
pest or weed control at 1000 g/ha (Williams 82): 13%
percent soybean crop injury at 250 g/ha (mutant line W19; W19, 250 g/ha postemergence): 9%
percent soybean crop injury at 1000 g/ha (mutant line W19; W19, 1000 g/ha postemergence): 9%
% crop injury at 250 g/ha (mutant line W4; W4, 250 g/ha postemergence): 13%
% crop injury at 1000 g/ha (mutant line W4; W4, 1000 g/ha postemergence): 13%
percent soybean injury at 250 g/ha (mutant line W23; W23, 250 g/ha postemergence): 9%
percent soybean injury at 1000 g/ha (mutant line W23; W23, 1000 g/ha postemergence): 13%
soybean crop injury (%) at 250 g/ha (mutant line W17; W17, 250 g/ha postemergence): 0%
soybean crop injury (%) at 1000 g/ha (mutant line W17; W17, 1000 g/ha postemergence): 8%

CN(C)C(=O)C(c1ccccc1)c1ccccc1 [diphenamid]
reduction in seedling weight (original cultivar): 40%
reduction in seedling weight (tolerant tomato lines): 25%

COc1cc(OC)nc(NC(=O)NS(=O)(=O)c2cccc3c2S(=O)(=O)C(C)C3)n1 (single isomer, unassigned) [Compound 12, N-[[(4,6-dimethoxy-2-pyrimidinyl)amino]carbonyl]-2,3,-dihydro-2-methylbenzo [B] thiophene-7-sulfonamide, 1,1-dioxide]
leaf formation [1]: allow unifoliolate (but not trifoliolate) formation
leaf and root development (wild type soybeans): consistently stunt or inhibit leaf and root development
formation of unifoliolate leaves and secondary roots [2]: could not
formation of unifoliolate leaves and secondary roots ([3]; tolerant mutant plants, 100 ppb in nutrient solution, 10 days after planting): able to form both unifoliolate leaves and secondary roots
further development on prolonged exposure ([3]; tolerant mutants, 100 ppb, 20 to 28 days): prevented further development
